Test results as given in ChEMBL document CHEMBL2203055, “From α4β2 Nicotinic Ligands to the Discovery of σ1 Receptor Ligands: Pharmacophore Analysis and Rational Design” (ACS Med Chem Lett, 2012).

Assays:
PC-12 = experiment: Displacement of [3H]DTG from sigma 2 receptor in rat PC12 cell membrane at 10 uM after 2 hrs by microbeta scintillation counting analysis; assay type: cell membranes
[1] = target: Sigma non-opioid intracellular receptor 1 (Rattus norvegicus) (UniProt Q9R0C9); experiment: Displacement of [3H]pentazocine from sigma 1 receptor in rat brain membrane at 10 uM after 2.5 hrs by microbeta scintillation counting analysis; assay type: cell membranes
[2] = target: Sigma non-opioid intracellular receptor 1 (Rattus norvegicus, UniProt Q9R0C9); experiment: Displacement of [3H]pentazocine from sigma 1 receptor in rat brain membrane after 2.5 hrs by microbeta scintillation counting analysis; assay type: cell membranes
[3] = Displacement of [3H]DTG from sigma 2 receptor in rat PC12 cell membrane after 2 hrs by microbeta scintillation counting analysis; assay type: cell membranes; details: pc-12
[4] = target: Sigma non-opioid intracellular receptor 1 (Homo sapiens, UniProt Q99720); experiment: Binding affinity to sigma 1 receptor
[5] = target: Neuronal acetylcholine receptor; alpha4/beta4 (Rattus norvegicus, UniProt P09483+P12392); experiment: Displacement of [3H]epibatidine from alpha4beta4 nAChR after 4 hrs by liquid scintillation counting analysis; assay type: protein-complex assay
[6] = target: T1, Neuronal acetylcholine receptor; alpha4/beta2 (Rattus norvegicus, UniProt P09483+P12390); experiment: Displacement of [3H]epibatidine from alpha4beta2* nAChR in rat forebrain after 4 hrs by liquid scintillation counting analysis
[7] = target: T1, Neuronal acetylcholine receptor; alpha4/beta2; experiment: Displacement of [3H]epibatidine from alpha4beta2 nAChR after 4 hrs by liquid scintillation counting analysis; assay type: protein-complex assay
[8] = target: Neuronal acetylcholine receptor; alpha3/beta4 (Rattus norvegicus, UniProt P04757+P12392); experiment: Displacement of [3H]epibatidine from alpha3beta4 nAChR after 4 hrs by liquid scintillation counting analysis; assay type: protein-complex assay
[9] = target: Neuronal acetylcholine receptor; alpha3/beta2 (Rattus norvegicus, UniProt P04757+P12390); experiment: Displacement of [3H]epibatidine from alpha3beta2 nAChR after 4 hrs by liquid scintillation counting analysis; assay type: protein-complex assay
[10] = target: Neuronal acetylcholine receptor; alpha2/beta4 (Rattus norvegicus, UniProt P12389+P12392); experiment: Displacement of [3H]epibatidine from alpha2beta4 nAChR after 4 hrs by liquid scintillation counting analysis; assay type: protein-complex assay
Sequence of Neuronal acetylcholine receptor; alpha2/beta4 (P12389 whole entry): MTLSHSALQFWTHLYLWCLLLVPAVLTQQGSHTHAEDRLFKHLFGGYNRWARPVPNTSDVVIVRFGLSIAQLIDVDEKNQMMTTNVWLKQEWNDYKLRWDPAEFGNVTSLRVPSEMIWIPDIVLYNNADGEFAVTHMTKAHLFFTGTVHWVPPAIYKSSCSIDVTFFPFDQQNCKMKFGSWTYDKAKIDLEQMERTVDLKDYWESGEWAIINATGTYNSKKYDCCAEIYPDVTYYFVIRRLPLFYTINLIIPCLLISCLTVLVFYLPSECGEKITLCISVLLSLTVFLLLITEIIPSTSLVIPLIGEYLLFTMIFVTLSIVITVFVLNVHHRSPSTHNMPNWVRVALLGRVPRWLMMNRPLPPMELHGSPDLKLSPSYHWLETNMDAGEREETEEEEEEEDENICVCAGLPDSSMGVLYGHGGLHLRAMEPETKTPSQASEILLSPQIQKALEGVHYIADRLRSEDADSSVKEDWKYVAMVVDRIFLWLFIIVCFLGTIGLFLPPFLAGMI
Sequence of Neuronal acetylcholine receptor; alpha2/beta4 (P12392 whole entry): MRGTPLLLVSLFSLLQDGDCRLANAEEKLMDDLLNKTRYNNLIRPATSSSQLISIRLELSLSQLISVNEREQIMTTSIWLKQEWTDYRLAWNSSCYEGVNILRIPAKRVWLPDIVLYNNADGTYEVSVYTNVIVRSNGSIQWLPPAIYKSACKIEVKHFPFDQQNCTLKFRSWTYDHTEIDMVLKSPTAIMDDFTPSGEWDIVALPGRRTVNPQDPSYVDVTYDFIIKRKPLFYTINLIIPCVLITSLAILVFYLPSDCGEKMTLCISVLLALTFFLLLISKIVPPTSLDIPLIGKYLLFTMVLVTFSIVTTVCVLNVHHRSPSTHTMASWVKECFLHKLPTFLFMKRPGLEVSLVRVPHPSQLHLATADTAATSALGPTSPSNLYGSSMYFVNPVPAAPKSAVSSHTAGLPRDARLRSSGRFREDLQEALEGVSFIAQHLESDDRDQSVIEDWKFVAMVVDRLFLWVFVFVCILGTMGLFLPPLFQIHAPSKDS

Sequence of Sigma non-opioid intracellular receptor 1 (Rattus norvegicus, UniProt Q9R0C9) (Q9R0C9 whole entry): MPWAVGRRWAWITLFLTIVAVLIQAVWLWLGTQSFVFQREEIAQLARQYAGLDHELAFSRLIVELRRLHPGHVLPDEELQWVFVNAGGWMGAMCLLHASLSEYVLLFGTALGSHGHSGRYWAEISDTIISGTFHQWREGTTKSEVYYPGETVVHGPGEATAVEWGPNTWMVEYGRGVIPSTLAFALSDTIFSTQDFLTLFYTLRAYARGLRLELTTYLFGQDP
Sequence of Sigma non-opioid intracellular receptor 1 (Rattus norvegicus) (Q9R0C9 whole entry): as above
T1 sequence (P09483 whole entry): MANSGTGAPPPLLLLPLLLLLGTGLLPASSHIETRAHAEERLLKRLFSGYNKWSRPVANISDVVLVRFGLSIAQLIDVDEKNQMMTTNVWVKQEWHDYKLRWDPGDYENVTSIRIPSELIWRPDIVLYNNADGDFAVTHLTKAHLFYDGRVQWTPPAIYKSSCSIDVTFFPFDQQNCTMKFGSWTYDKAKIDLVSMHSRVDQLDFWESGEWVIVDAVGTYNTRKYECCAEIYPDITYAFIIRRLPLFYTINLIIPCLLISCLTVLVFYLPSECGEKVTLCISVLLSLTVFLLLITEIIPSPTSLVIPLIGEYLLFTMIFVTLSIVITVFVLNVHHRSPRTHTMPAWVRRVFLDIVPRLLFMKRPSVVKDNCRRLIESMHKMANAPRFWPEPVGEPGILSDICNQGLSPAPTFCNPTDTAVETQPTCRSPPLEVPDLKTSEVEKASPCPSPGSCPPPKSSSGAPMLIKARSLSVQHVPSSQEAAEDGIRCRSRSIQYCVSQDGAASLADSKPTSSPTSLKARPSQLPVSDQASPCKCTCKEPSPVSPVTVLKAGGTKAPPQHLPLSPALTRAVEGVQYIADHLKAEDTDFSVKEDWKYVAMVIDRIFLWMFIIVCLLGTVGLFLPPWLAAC
T1 sequence (P12390 whole entry): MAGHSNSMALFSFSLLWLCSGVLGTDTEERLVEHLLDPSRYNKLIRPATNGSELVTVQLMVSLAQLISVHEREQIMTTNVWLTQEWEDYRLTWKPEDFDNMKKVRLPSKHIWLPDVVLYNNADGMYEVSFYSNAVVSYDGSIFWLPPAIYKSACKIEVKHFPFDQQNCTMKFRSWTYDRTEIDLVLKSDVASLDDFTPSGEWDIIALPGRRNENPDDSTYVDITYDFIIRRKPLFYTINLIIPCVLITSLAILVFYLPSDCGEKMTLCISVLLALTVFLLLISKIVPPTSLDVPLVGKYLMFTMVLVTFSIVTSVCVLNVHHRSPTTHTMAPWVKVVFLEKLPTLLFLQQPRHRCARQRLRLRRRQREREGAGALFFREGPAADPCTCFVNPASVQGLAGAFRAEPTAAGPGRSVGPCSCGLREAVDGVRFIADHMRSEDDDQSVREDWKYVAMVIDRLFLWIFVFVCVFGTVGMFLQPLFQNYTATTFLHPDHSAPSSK
Sequence of Neuronal acetylcholine receptor; alpha3/beta4 (P04757 whole entry): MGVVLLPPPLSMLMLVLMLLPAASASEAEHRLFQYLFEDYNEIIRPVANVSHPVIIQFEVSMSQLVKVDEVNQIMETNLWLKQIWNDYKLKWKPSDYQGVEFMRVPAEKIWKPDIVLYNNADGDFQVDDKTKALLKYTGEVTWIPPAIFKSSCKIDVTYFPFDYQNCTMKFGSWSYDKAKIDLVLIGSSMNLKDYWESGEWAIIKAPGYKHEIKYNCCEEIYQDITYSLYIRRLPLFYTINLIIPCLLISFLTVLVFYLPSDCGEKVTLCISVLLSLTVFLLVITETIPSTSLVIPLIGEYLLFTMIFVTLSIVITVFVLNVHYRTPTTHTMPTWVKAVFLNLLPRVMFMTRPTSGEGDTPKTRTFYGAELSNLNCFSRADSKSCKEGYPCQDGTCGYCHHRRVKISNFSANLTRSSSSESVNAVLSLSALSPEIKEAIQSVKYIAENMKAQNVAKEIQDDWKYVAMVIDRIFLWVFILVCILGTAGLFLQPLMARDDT
Sequence of Neuronal acetylcholine receptor; alpha3/beta4 (P12392 whole entry): as the sequence (P12392 whole entry) above
Sequence of Neuronal acetylcholine receptor; alpha3/beta2 (P04757 whole entry): as the sequence (P04757 whole entry) above
Sequence of Neuronal acetylcholine receptor; alpha3/beta2 (P12390 whole entry): as the sequence (P12390 whole entry) above
Sequence of Neuronal acetylcholine receptor; alpha4/beta4 (P09483 whole entry): as the sequence (P09483 whole entry) above
Sequence of Neuronal acetylcholine receptor; alpha4/beta4 (P12392 whole entry): as the sequence (P12392 whole entry) above
Sequence of Sigma non-opioid intracellular receptor 1 (Homo sapiens, UniProt Q99720) (Q99720 whole entry): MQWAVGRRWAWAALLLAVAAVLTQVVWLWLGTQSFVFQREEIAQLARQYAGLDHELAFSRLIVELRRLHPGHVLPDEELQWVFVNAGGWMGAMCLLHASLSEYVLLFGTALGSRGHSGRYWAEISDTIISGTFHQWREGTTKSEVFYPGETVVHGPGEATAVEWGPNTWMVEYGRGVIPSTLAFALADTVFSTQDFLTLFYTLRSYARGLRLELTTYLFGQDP

Molecule `OCc1cc(OC[C@@H]2CCN2)on1` has an Activity (PC-12) of under 50% and an Activity [1] of under 50%.
`Cc1cc(OC[C@@H]2CCN2)no1` gave an Activity (PC-12) of under 50% and an Activity [1] of under 50%.
For `c1ccc(OCc2cc(OC[C@@H]3CCCN3)on2)cc1`, the Activity (PC-12) was under 50% and the Ki [2] was 4.2 nM.
Molecule `c1c(OC[C@@H]2CCN2)noc1COCC1CC1` has a Ki [3] of 369 nM and an Activity [1] of under 50%.
For `COCc1cc(OC[C@@H]2CCN2)no1`, the Activity (PC-12) was under 50% and the Activity [1] was under 50%.
`Cc1cc(OC[C@@H]2CCN2)on1` showed an Activity (PC-12) of under 50% and an Activity [1] of under 50%.
`COC(=O)[C@@]1(c2ccccc2)C[C@H]1CN(C)C12CC3CC(CC(C3)C1)C2` showed a Ki [4] of 2.1 nM.
For `Clc1cncc(OCc2cc(OC[C@@H]3CCN3)no2)c1`, the Ki [5] was 5580 nM, the Ki [6] was over 10000 nM and the Ki [7] was 2220 nM. For the same molecule, the Ki [8] was 6100 nM, the Ki [9] was over 10000 nM and the Ki [10] was 1820 nM. For the same molecule, the Activity (PC-12) was under 50% and the Ki [2] was 103 nM.
`c1ccc(OCc2cc(OC[C@@H]3CCN3)on2)cc1` showed an Activity (PC-12) of under 50% and a Ki [2] of 328 nM.
